Test results published in US20220202912A1, “Polypeptides in Preparation of Drugs for Treatment or Prevention of Rheumatoid Arthritis” (priority 2011, published 2022).
Where no end group is shown, it is not given here.

Assays:
[1] = test system: TLR-4; test: Western blot of TLR-4 protein in LPS-induced rat synovial cells; assay type: cell-based
Description: 3.1 U937 cells are added to a 6-well plate (1.5×10^5 cells/mL), PMA (25 ng/mL) is used for induction for 48 h, and the cells adhere and differentiate into macrophages. Positive drug Adalimumab (25 μg/mL, 50 μg/mL, 100 μg/mL, 200 μg/mL, 400 μg/mL), Avastin (25 μg/mL, 50 μg/mL) are added, the final concentrations of mPEG-SC20k-HM-3 are 2.25, 4.5, 9.0, 13.5, 18.0, 36 μmol/L, and isovolumetric PBS is added to the blank group and the model group. The cells are incubated in a CO2 incubator at 37° C. for 24 or 48 h. Rat synovial cells are induced with LPS for 24 h and then mPEG-SC20k-HM-3 is administrated to final concentrations of 2.25, 4.5, 9.0, 13.5, 18.0 μmol/L, and the cells are incubated in a CO2 incubator at 37° C. for 48 h.
3.3 A protein extract solution is added at 20 μL/1×10^5 cells, and the cells are pipetted and dispersed, and stand at 4° C. for 30 min to lyse the cells.
3.4 1/4 volume of 5×protein loading buffer is added, and boiling water bath is performed for 5-10 min.
3.5 20 μL of protein sample is taken and 10% SDS-PAGE electrophoresis is performed.
3.6 The protein on the gel is transferred to the PVDF membrane by using a wetting transfer method with a constant current of 100 mA for 1-2.5 h.
3.7 The PVDF membrane is blocked with a blocking solution at room temperature for 2 h.
3.8 The membrane is washed for 3 times with PBST, 5 min each time. […]

[2] = test system: human U937 cells; test: human whole genome array of U937-derived macrophages; assay type: cell-based; conditions: 13.5 μmol/L, 48 h
Description: 1.1.1 U937 cells are cultured in a 6-well plate at 3×10^6 cells/mL per well overnight, and PMA (25 ng/mL) is added on the next day for induction for 48 h. After the cells adhere, cultured supernatant is pipetted away. The cells are treated with mPEG-SC20k-HM-3 (test group) or a medium (negative control group) at 13.5 μmol/L at 37° C. for 48 h.
1.1.2 1×10^6 cells are taken from each of two groups of samples, and the solution has […], and is centrifuged for 5 min. The supernatant is removed. 1 mL of TRIZOL lysis solution is added and mixed uniformly, and the solution stands at room temperature for 5 min.
1.2 DNase I digest the RNA sample to remove any genomic DNA that may be contained therein. […]
1.8.2 Sample adding: An membrane on the PCR Array is opened, 10 μL of mixture is added to each well corresponding to the PCR Array, and a lid is closed to seal the PCR Array; after a real-time quantitative PCR program is set, the PCR Array is placed on the real-time quantitative PCR instrument for PCR reaction, and the prepared PCR Array is placed on ice before the PCR program is set. […]
1.9.3 2^−ΔΔCt values of the test group and the control group are calculated to analyze the difference in expression of the corresponding genes between the test group and the control group. […]

“mPEG-SC20k-Ile-Val-Arg-Arg-Ala-Asp-Arg-Ala-Ala-Val-Pro-Gly-Gly-Gly-Gly-Arg-Gly-Asp ({mPEG‑SC 20k}-IVRRADRAAVPGGGGRGD) [polypeptide III, No. 3]” was tested, and the “dose with the best inhibitory effect on the expression of TLR-4 protein” value [1] was 13.5 µM, the “expression of TLR-4 protein in rat synovial cells” value ([1]; with the increase of dosage) was “down-regulation” and the “number of related factors down-regulated at the mRNA level” value [2] was 538. For the same substance, the “number of related factors up-regulated at the mRNA level” value [2] was 499.
